Reference: US20200278355A1, “CONJUGATED PROTEINS AND USES THEREOF” (THE SCRIPPS RESEARCH INSTITUTE, priority 2017, published 2020)

Target: T1, SELO (Homo sapiens, UniProt Q9BVL4)
T1 construct: Isotopically labeled H460 cell lines were generated as described above; endogenous in cells; host or cells: H460 (SILAC-labelled)
Assay: ABPP-SILAC BPK-29yne competition in H460 cells: SELO
Type: cell-based
Details: 20 μM
Procedure: Isotopically labeled H460 cell lines were generated as described above. Light and heavy cells were treated with compounds (20 μM) or DMSO, respectively, for 3 h, followed by labeling with the BPK-29yne (5 μM) for 30 min. Cells were washed once ice-cold PBS and lysed in 1% Triton 100-X dissolved in PBS with protease inhibitors (Sigma) by sonication. Lysate was adjusted to 1.5 mg ml^−1 in 500 μL. Samples were conjugated by CuAAC to Biotin-PEG4-azide (5 μL of 10 mM stocks in DMSO, final concentration=100 μM). CuAAC “click” mix contained TCEP, TBTA ligand and CuSO4 as detailed for isoTOP-ABPP sample preparation. Samples were further processed as detailed in: isoTOP-ABPP streptavidin enrichment and isoTOP-ABPP trypsin TEV digestion with the following exception: after overnight incubation at 37° C. with trypsin, tryptic digests were separated from the beads with Micro Bio-Spin columns (Bio-Rad) by centrifugation (1,000×g, 1 min). Beads were rinsed once with water (200 μL) and combined with tryptic digests. […]
The MS2 spectra data were extracted and searched using RAW Convertor and ProLuCID algorithm as described in isoTOP-ABPP peptide and protein quantification. […] Ratios of heavy/light (DMSO/test compound) peaks were calculated using in-house CIMAGE software. […] The mean R values and standard deviation for multiple biological experiments were calculated from the average ratios from each replicate. […]

T1 sequence (Q9BVL4 116-669): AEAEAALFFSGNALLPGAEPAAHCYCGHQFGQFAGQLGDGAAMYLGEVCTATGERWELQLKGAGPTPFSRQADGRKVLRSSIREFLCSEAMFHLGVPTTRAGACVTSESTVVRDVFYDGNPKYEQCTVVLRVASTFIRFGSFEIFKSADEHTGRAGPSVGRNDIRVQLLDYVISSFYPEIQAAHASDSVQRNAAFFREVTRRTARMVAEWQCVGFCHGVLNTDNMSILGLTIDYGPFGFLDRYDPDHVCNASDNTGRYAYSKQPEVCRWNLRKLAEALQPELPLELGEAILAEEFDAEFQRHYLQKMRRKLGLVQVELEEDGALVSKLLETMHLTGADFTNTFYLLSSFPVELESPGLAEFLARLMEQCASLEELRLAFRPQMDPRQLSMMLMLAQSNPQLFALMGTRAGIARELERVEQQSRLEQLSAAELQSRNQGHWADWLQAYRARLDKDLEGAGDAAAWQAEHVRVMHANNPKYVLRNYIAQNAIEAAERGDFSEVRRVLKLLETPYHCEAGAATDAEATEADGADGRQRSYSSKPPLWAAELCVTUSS

With O=C(c1ccc(N2CCOCC2)cc1)N1CCCC(N(Cc2ccccc2)C(=O)CCl)CC1 (stereo not shown) [BPK-29, N-benzyl-2-chloro-N-(1-(4-morpholinobenzoyl)azepan-4-yl)acetamide] the “BPK-29-competed BPK-29yne analysis” value was “Yes (Competed defined as showing R value ≥ 2.5 at 20 μM of test compound)”.
